The values that follow come from patent US20230257347A1 (priority 2020, published 2023).

One may read the EC50 as the concentration at which the effect is half-maximal. For orientation: IC50 means the concentration that inhibits the measured activity by half.

Molecules are shown by their SMILES. Structures can show the parent of a compound that is named as a salt. Where two headings read alike, the source gives them in different places.

Assay [1] deals with Arginine Vasopressin Receptor 1A (AVPR1A) (Homo sapiens, UniProt P37288). Kind of assay: Calcium flux assay, AVPR1A. Format: cell-based. For orientation: A change in cytosolic calcium serves as a functional read-out for many receptors and channels.
Sequence of Arginine Vasopressin Receptor 1A (AVPR1A) (P37288 whole entry): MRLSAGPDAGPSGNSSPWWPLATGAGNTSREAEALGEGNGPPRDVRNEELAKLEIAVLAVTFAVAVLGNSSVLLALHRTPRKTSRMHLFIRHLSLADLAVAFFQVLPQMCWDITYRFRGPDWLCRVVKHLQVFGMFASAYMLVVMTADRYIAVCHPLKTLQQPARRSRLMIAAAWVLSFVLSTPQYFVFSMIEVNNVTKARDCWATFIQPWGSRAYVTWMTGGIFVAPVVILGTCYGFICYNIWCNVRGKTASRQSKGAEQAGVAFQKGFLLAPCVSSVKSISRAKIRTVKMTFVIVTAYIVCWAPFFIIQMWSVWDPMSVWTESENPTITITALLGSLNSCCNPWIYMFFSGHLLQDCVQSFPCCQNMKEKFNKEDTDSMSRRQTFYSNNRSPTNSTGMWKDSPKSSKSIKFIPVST
In assay [2] the target is T1, hERG (Homo sapiens, UniProt Q12809).
T1 construct: expressed in transfected cells
T1 sequence (Q12809 whole entry): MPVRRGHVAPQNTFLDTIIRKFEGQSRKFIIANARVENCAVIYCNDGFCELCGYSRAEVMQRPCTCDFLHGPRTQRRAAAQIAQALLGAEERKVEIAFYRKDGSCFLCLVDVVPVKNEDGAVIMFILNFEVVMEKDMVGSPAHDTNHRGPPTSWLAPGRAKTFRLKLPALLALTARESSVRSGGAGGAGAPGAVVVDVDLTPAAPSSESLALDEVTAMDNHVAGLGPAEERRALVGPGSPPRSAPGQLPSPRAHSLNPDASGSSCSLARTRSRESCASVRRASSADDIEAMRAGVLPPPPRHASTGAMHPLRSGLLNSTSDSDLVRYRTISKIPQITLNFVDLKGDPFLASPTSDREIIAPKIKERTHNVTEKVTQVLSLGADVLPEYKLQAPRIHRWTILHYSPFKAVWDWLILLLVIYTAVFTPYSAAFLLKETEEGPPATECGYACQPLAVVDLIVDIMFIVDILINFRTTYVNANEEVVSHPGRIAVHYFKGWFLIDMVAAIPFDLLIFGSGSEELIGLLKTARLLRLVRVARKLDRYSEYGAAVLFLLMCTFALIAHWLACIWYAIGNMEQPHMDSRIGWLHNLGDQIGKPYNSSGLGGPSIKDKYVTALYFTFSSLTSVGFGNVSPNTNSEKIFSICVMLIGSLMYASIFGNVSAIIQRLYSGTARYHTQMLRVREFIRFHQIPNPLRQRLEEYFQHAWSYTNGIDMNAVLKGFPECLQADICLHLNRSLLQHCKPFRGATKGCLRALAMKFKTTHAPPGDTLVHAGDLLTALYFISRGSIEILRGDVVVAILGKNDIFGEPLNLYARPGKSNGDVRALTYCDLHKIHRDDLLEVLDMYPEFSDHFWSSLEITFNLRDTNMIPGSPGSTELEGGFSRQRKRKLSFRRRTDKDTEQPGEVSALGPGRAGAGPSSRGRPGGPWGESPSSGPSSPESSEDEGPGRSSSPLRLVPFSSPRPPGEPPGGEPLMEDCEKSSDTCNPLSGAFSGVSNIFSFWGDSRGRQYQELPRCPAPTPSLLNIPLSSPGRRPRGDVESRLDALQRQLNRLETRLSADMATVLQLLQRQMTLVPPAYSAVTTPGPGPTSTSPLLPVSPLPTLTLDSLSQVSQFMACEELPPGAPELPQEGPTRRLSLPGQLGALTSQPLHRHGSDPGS
Description: Ion channel assay, hERG. The class given is cell-based. For orientation: The hERG channel carries a current that helps repolarise heart muscle cells.

Assay [3] deals with Histamine Receptor H1 (HRH1) (Homo sapiens, UniProt P35367). Kind of assay: cell-based.
In assay [4] the target is T2, Vascular endothelial growth factor receptor 2 (KDR tyrosine kinase) (VEGFR2) (Homo sapiens, UniProt P35968).
T2 construct: made in house; host or cells: E. coli BL21-derived host (T7 phage) or HEK-293
T2 sequence (P35968 20-1356): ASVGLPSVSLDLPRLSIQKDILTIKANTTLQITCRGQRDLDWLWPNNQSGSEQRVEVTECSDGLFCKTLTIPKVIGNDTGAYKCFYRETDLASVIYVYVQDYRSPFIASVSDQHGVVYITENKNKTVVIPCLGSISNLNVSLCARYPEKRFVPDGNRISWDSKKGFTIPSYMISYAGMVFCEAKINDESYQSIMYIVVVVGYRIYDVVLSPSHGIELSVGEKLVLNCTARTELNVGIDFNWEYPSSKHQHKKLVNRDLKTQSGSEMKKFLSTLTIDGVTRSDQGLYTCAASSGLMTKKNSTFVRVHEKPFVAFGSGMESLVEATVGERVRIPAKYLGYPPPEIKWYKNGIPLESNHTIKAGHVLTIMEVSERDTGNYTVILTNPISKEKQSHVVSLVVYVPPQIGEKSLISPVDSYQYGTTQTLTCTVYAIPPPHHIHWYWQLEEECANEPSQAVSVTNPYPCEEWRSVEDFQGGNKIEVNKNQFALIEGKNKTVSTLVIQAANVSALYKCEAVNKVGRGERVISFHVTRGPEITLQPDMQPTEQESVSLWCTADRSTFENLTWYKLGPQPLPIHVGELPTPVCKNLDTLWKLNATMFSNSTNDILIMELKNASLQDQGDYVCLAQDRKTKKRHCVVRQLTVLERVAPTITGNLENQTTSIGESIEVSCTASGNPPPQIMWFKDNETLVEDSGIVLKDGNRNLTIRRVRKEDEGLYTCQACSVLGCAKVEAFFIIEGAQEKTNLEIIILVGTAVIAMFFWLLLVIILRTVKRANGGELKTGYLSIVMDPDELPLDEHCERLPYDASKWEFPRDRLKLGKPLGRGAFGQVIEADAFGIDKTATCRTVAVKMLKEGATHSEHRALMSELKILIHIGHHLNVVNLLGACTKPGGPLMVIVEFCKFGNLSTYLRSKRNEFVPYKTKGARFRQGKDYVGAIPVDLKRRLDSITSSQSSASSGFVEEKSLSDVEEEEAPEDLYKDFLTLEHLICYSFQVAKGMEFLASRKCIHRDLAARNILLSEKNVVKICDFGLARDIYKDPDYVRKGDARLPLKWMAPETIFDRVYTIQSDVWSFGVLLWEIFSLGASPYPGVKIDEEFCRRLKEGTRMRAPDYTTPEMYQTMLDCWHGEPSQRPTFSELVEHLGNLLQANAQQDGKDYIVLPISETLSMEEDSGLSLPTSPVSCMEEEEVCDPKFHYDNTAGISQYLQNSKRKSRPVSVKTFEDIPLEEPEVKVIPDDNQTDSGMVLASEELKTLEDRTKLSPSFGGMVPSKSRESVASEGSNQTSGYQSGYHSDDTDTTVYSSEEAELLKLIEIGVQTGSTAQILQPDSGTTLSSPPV
Kind of assay: biochemical. Format: binding.

Assay [5] has as its target T3, Lymphocyte Cell-Specific Protein-Tyrosine Kinase (LCK) (Homo sapiens, UniProt P06239).
T3 construct: made in house; host or cells: E. coli BL21-derived host (T7 phage) or HEK-293
Kind of assay: KINOMEscan binding assay, LCK.

The target in assay [6] is T4, Monoamine oxidase type A (MAOA) (Homo sapiens, UniProt P21397).
T4 construct: purchased Sigma
T4 sequence (P21397 1-527): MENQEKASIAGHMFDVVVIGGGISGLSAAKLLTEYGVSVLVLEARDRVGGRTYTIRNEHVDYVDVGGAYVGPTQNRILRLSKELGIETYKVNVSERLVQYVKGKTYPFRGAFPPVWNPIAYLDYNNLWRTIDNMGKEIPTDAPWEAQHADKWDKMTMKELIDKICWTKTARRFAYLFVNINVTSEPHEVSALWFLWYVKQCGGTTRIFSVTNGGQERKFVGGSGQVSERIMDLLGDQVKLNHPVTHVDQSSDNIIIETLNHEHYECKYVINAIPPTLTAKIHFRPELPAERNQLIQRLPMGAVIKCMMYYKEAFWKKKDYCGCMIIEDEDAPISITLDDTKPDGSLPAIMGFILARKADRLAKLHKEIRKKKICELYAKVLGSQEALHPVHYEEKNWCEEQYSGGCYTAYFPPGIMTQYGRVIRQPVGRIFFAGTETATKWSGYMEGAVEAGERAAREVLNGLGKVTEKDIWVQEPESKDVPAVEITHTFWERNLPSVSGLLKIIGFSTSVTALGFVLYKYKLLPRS
Description: Enzymatic assay, MAOA (kynuramine substrate). Format: biochemical.

Assay [7] has as its target Opioid Receptor Kappa 1 (OPRK1) (Homo sapiens, UniProt P41145). Kind of assay: cAMP assay, OPRK1. The class given is cell-based. On the technique in general: cAMP levels reflect the balance of adenylyl cyclase and phosphodiesterase activity.
Assay [8] deals with T5, Muscarinic acetylcholine Receptor M2 (CHRM2) (Homo sapiens, UniProt P08172).
T5 sequence (P08172 1-466): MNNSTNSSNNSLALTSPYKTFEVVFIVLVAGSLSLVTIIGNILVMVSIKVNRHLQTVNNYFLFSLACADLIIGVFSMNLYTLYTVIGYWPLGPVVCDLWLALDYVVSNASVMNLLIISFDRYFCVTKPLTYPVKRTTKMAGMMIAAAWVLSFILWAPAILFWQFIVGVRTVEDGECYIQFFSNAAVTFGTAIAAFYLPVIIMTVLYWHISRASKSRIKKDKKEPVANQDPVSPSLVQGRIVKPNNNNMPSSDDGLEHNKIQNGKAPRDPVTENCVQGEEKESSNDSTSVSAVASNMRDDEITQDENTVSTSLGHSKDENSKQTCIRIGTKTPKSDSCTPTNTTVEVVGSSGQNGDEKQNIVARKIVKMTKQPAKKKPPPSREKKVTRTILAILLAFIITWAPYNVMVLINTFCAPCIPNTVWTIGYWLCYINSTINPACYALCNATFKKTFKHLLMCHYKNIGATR
Kind of assay: cAMP assay, CHRM2. Format: cell-based.

For assay [9], the target named is T6, Norepinephrine transporter (NET) (Homo sapiens, UniProt P23975).
T6 construct: expressed in transfected cells
Description: Monoamine transporter uptake assay (fluorescent substrate), NET. The class given is cell-based.

Assay [10] has as its target 5-Hydroxytryptamine (Serotonin) Receptor 1B (5-HT1B) (Homo sapiens, UniProt P28222). Kind of assay: cAMP secondary messenger assay, 5-HT1B. Format: cell-based.
Assay [11] has as its target 5-Hydroxytryptamine (Serotonin) Receptor 2B (5-HT2B) (Homo sapiens, UniProt P41595). Description: Calcium flux secondary messenger assay, 5-HT2B. The class given is cell-based.
Assay [12] has as its target T7, Nuclear Hormone Androgen Receptor (AR) (Homo sapiens, UniProt P10275).
T7 sequence (P10275 1-920): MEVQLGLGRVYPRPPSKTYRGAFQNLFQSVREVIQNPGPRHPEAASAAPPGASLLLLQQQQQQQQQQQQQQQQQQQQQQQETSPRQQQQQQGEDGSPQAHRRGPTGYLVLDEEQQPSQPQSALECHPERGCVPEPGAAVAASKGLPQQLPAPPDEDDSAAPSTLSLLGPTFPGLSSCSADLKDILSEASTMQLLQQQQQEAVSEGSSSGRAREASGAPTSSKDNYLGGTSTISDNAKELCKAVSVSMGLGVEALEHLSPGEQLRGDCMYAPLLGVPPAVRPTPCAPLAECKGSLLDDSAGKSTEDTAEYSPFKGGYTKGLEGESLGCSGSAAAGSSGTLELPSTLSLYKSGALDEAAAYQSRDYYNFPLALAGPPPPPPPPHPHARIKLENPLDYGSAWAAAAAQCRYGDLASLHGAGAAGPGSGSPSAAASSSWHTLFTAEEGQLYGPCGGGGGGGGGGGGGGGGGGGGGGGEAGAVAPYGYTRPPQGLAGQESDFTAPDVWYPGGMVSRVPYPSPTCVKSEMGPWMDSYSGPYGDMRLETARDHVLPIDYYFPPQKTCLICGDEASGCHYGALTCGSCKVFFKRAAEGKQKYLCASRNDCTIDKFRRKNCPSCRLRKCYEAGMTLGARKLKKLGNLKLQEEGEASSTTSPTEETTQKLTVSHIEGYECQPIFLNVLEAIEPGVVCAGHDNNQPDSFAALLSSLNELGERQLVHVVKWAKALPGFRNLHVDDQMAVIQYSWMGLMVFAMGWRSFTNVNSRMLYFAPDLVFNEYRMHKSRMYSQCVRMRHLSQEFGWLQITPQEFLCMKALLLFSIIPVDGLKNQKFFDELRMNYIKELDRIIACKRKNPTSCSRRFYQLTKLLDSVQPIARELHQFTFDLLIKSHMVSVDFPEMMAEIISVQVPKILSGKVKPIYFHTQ
Description: NHR Nuclear Translocation assay, AR. Format: cell-based.

For assay [13], the target named is 5-Hydroxytryptamine (Serotonin) Receptor 2A (5-HT2A) (Homo sapiens, UniProt P28223). Kind of assay: Calcium flux secondary messenger assay, 5-HT2A. Format: cell-based.
Sequence of 5-Hydroxytryptamine (Serotonin) Receptor 2A (5-HT2A) (P28223 whole entry, looked up): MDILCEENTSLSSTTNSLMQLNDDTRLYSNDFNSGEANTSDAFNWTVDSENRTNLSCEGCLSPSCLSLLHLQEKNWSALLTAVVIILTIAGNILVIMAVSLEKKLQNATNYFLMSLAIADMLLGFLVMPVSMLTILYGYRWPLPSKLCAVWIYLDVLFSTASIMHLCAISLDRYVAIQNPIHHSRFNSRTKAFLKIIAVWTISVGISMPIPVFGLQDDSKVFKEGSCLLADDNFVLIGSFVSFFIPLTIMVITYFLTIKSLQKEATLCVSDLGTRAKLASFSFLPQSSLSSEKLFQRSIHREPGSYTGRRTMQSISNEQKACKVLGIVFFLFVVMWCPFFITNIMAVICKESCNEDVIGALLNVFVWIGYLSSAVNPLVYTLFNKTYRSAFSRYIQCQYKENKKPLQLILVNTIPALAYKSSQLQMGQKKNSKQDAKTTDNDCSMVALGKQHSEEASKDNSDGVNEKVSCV
The mark [14] stands for this setting: read-out: MAOA IC50, Table 10, Source: Original data.

Sequence of 5-Hydroxytryptamine (Serotonin) Receptor 2B (5-HT2B) (P41595 whole entry): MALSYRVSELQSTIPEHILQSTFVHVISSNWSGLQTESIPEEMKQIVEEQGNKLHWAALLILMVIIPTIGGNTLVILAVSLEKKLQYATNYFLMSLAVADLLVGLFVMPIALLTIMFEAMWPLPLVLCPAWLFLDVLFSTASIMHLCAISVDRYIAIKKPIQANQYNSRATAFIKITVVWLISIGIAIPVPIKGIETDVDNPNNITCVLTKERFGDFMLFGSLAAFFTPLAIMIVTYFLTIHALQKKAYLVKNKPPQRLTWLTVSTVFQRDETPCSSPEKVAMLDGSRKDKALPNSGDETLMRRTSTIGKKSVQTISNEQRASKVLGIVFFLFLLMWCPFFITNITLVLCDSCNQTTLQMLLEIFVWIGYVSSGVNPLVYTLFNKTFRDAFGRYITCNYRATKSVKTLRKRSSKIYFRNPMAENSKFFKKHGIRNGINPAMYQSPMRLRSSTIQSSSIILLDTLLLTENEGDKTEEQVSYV
Sequence of Opioid Receptor Kappa 1 (OPRK1) (P41145 whole entry): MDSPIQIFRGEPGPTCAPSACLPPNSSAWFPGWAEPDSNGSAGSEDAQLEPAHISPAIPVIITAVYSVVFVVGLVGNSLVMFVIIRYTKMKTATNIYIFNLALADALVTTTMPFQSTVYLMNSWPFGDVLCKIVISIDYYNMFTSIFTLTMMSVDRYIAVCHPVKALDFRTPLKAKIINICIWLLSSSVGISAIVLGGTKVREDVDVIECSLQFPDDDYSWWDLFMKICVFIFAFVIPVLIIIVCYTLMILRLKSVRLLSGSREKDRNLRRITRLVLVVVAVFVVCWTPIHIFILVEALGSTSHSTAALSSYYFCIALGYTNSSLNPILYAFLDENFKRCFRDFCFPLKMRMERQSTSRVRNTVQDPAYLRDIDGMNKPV
T3 sequence (P06239 whole entry): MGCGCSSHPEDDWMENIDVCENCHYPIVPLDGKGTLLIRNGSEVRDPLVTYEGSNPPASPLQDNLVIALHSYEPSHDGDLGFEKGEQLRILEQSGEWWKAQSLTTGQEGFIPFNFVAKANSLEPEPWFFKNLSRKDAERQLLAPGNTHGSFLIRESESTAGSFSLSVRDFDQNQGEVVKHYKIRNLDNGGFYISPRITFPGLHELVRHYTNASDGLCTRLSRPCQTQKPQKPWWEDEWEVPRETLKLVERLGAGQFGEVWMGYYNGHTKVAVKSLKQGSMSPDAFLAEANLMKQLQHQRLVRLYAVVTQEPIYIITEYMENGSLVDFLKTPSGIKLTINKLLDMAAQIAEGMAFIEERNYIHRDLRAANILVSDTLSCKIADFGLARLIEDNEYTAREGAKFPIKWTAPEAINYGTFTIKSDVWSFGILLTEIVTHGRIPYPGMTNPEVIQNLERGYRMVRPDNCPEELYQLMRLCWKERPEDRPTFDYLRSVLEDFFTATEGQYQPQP

Consider `CNC(C)C(=O)c1c[nH]c2ccc(Br)cc12` (stereo not shown) [BK-5Br-NM-AMT, 1-(5-bromo-1H-indol-3-yl)-2-(methylamino) propan-1-one hydrochloride], for which the EC50 in assay [1], in assay [3], in [7], in [8], in assay [10] and in [11] was over 10 µM in each case. The concentration for a half-maximal effect (EC50) in assay [12] and in assay [13] was over 10 µM in each case. Besides, the 50% inhibitory concentration (IC50) in [1], in assay [2], in assay [3], in assay [4], in assay [5] and in assay [6] was over 10 µM each time. Moreover, the IC50 in [6] (setting [14]) is over 10 µM; in [7], over 10 µM; in [8], over 10 µM; in assay [9], over 10 µM; in assay [10], over 10 µM; in [11] it was 0.0447 µM. Further, the figures for the IC50 in [12] and in assay [13] were over 10 µM and 8.63 µM, respectively.
For the compound `CNC(C)C(=O)c1c[nH]c2ccc(Cl)cc12` (stereo not shown) [BK-5Cl-NM-AMT, 1-(5-chloro-1H-indol-3-yl)-2-(methylamino) propan-1-one hydrochloride], the EC50 in assay [1], in assay [3], in [7], in assay [8], in assay [10] and in [11] was over 10 µM in each case. The 50% effective concentration (EC50) in assay [12] and in assay [13] was over 10 µM each time. The IC50 in assay [1], in assay [2], in [3], in assay [4], in assay [5] and in assay [6] was over 10 µM in each case. The IC50 in [6] (setting [14]) is over 10 µM; in assay [7] it was over 10 µM; in assay [8], over 10 µM; in [9] it was over 10 µM; in assay [10] it was over 10 µM; in assay [11], 0.0921 µM. For the same compound, the IC50 in [12] and in assay [13] was over 10 µM throughout.
With `CNC(C)C(=O)c1c[nH]c2ccc(F)cc12` (stereo not shown) [BK-5F-NM-AMT, 1-(5-Fluoro-1H-indol-3-yl)-2-(methylamino) propan-1-one hydrochloride], the EC50 in assay [1], in [3], in [7], in [8], in assay [10] and in assay [11] was over 10 µM in each case. Moreover, the EC50 in assay [12] and in [13] was over 10 µM throughout. The IC50 in assay [1], in assay [2], in [3], in assay [4], in assay [5] and in [6] was over 10 µM throughout. Also, the concentration for half-maximal inhibition (IC50) is over 10 µM in assay [6] (setting [14]); over 10 µM in assay [7]; over 10 µM in assay [8]; over 10 µM in assay [9]; over 10 µM in assay [10]; 0.587 µM in assay [11]. Also, the IC50 in [12] and in assay [13] was over 10 µM throughout. Moreover, the “MAOA inhibition (MAOI or not, in words)” value in assay [6] (original data) is recorded as “is not an MAOI”.
